The text below walks through data of publication PMC2362650, “Phase I and pharmacokinetic study of the topoisomerase II catalytic inhibitor fostriecin” (British Journal of Cancer, 1999).

For one data set, the system named is solid tumour. The data set can be described thus: Tumour response in phase I patients. Format: in vivo, human. The note with it: 2-20 mg m-2 day-1, days 1-5 every 4 weeks; 10 patients with measurable disease. An excerpt: Fostriecin (CI-920) is a topoisomerase (topo) II catalytic activity inhibitor (Boritzki et al, 1988) (Figure 1). This novel class of topo II-targeting drugs is considered of potential value for treatment of patients with tumours resistant to classic topo II poisons, including anthracyclines and podophyllotoxins (Cummings and Smyth, 1993). The nuclear enzyme topo II is essential for the regulation of DNA conformation (reviewed in Osheroff et al, 1991). Central in its action is the formation of a complex with DNA. Stabilization of this complex by topo II poisons induces DNA damage and cell death (Froelich-Ammon and Osheroff, 1995). Decreased complex formation due to decreased topo II levels is considered to be an important mechanism of tumour-resistance to topo II poisons (Beck and Danks, 1991). The topo II catalytic inhibitor fostriecin is expected to have increased activity against tumour cells with low topo II levels and this was confirmed in in vitro studies (De Jong et al, 1991). […] Drug pharmacokinetics was analysed with high performance liquid chromatography with UV-detection. […] A metabolite, most probably dephosphorylated fostriecin, was detected in plasma and urine. […]

On the set-up of data set [1]: method as in Clinical Brochure Fostriecin, 1991. The note with it: mouse; 5-day schedule; ref Clinical Brochure Fostriecin, 1991; cited from earlier work.
The test system of a further data set is GLC4/VM20x. Details: method as in Withoff et al, 1996. The note with it: ref Withoff et al, 1996; cited from earlier work.
In a further data set the test system is murine leukaemia P388. Set-up: method as in Leopold et al, 1984. The settings on record: ref Leopold et al, 1984; cited from earlier work.

In the case of `C[C@@](O)(/C=C/[C@H]1CC=CC(=O)O1)[C@@H](C[C@@H](O)\C=C/C=C\C=C\CO)OP(=O)(O)O` [fostriecin], in the data set with solid tumour, the tumour responses result is “No tumour responses”. Also, the LD10 in data set [1] is recorded as 120 mg m-2 day-1. Besides, the “sensitivity of GLC4/VM20x relative to GLC4” value with GLC4/VM20x is recorded as 1.7 times. For the same molecule, in the data set with murine leukaemia P388, the “activity against P388” value is reported as “active”.
